Source: US12077503B2, “Substituted cyclic amides and their use as herbicides” (FMC CORPORATION, priority 2015, dated 2024)

How the values were obtained:
Format in all cases: in vivo
[1] = tested on: giant foxtail (Setaria faberi); test: Test G Post-Emergence Protocol; details: Setaria faberi, post-emergence, 312 h, read-out: Foxtail, Giant damage rating; for pest or weed control at 15.625 g/ha: 15.625 g ai/ha, evaluated after 13 days (100=total damage to plant; 0=no damage to plant); for pest or weed control at 62.5 g/ha: 62.5 g ai/ha; for pest or weed control at 62.5 g/ha / pest or weed control at 250 g/ha: evaluated after 13 days, 100=total damage to plant, 0=no damage to plant; for pest or weed control at 250 g/ha: 250 g ai/ha
In short: (§1)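 Scores run 0 (no damage) to 100 (total damage) and were taken 13 days after spraying. Plants had been raised in pots for 8 days under glasshouse control (24/16 °C, 14 h photoperiod, 65% humidity) and then treated at 15.625, 62.5 or 250 g/ha.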

[2] = tested on: ivy-leaved morning glory (Ipomoea hederacea); test: Test G Post-Emergence Protocol; details: Ipomoea, post-emergence, 312 h, read-out: Morningglory, Ivy-leaved damage rating; for pest or weed control at 15.625 g/ha: 15.625 g ai/ha, evaluated after 13 days (100=total damage to plant; 0=no damage to plant); for pest or weed control at 62.5 g/ha: 62.5 g ai/ha; for pest or weed control at 62.5 g/ha / pest or weed control at 250 g/ha: evaluated after 13 days, 100=total damage to plant, 0=no damage to plant; for pest or weed control at 250 g/ha: 250 g ai/ha
In short: as §1

[3] = tested on: redroot pigweed (Amaranthus retroflexus); test: Test G Post-Emergence Protocol; details: Amaranthus retroflexus, post-emergence, 312 h, read-out: Pigweed, Redroot damage rating; for pest or weed control at 15.625 g/ha: 15.625 g ai/ha, evaluated after 13 days (100=total damage to plant; 0=no damage to plant); for pest or weed control at 62.5 g/ha: 62.5 g ai/ha; for pest or weed control at 62.5 g/ha / pest or weed control at 250 g/ha: evaluated after 13 days, 100=total damage to plant, 0=no damage to plant; for pest or weed control at 250 g/ha: 250 g ai/ha
In short: as §1

[4] = tested on: velvetleaf (Abutilon theophrasti); test: Test G Post-Emergence Protocol; details: Abutilon theophrasti, post-emergence, 312 h, read-out: Velvetleaf damage rating; for pest or weed control at 15.625 g/ha: 15.625 g ai/ha, evaluated after 13 days (100=total damage to plant; 0=no damage to plant); for pest or weed control at 62.5 g/ha: 62.5 g ai/ha; for pest or weed control at 62.5 g/ha / pest or weed control at 250 g/ha: evaluated after 13 days, 100=total damage to plant, 0=no damage to plant; for pest or weed control at 250 g/ha: 250 g ai/ha
In short: as §1

corn (Zea mays) [5] = test: Test G Post-Emergence Protocol; details: Zea mays, post-emergence, 312 h, read-out: Corn damage rating; for plant injury at 15.625 g/ha: 15.625 g ai/ha, evaluated after 13 days (100=total damage to plant; 0=no damage to plant); for plant injury at 62.5 g/ha: 62.5 g ai/ha; for plant injury at 62.5 g/ha / plant injury at 250 g/ha: evaluated after 13 days, 100=total damage to plant, 0=no damage to plant; for plant injury at 250 g/ha: 250 g ai/ha
In short: as §1

[6] = tested on: barnyardgrass (Echinochloa crus-galli); test: Test G Post-Emergence Protocol; details: Echinochloa crus-galli, post-emergence, 312 h, read-out: Barnyardgrass damage rating; for pest or weed control at 15.625 g/ha: 15.625 g ai/ha, evaluated after 13 days (100=total damage to plant; 0=no damage to plant); for pest or weed control at 62.5 g/ha: 62.5 g ai/ha; for pest or weed control at 62.5 g/ha / pest or weed control at 250 g/ha: evaluated after 13 days, 100=total damage to plant, 0=no damage to plant; for pest or weed control at 250 g/ha: 250 g ai/ha
In short: as §1

[7] = tested on: giant foxtail (Setaria faberi); test: Test G Pre-Emergence Protocol; details: Setaria faberi, pre-emergence, 312 h, evaluated after 13 days; for pest or weed control at 15.625 g/ha: 15.625 g ai/ha; for pest or weed control at 15.625 g/ha / pest or weed control at 250 g/ha: read-out: Foxtail, Giant damage rating (100=total damage to plant; 0=no damage to plant); for pest or weed control at 62.5 g/ha: 62.5 g ai/ha, 100=total damage to plant, 0=no damage to plant, read-out: Foxtail, Giant damage rating; for pest or weed control at 250 g/ha: 250 g ai/ha
In short: (§2)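 Visual injury (0–100) at day 13 after a single pre-emergence spray. Rates: 15.625, 62.5, 250 g/ha in acetone–water 50:50 with 0.5% Tween 20. Growth conditions: 24/16° C, 14 h light, 65% humidity.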

[8] = tested on: ivy-leaved morning glory (Ipomoea hederacea); test: Test G Pre-Emergence Protocol; details: Ipomoea, pre-emergence, 312 h, evaluated after 13 days; for pest or weed control at 15.625 g/ha: 15.625 g ai/ha; for pest or weed control at 15.625 g/ha / pest or weed control at 250 g/ha: read-out: Morningglory, Ivy-leaved damage rating (100=total damage to plant; 0=no damage to plant); for pest or weed control at 62.5 g/ha: 62.5 g ai/ha, 100=total damage to plant, 0=no damage to plant, read-out: Morningglory, Ivy-leaved damage rating; for pest or weed control at 250 g/ha: 250 g ai/ha
In short: as §2

[9] = tested on: redroot pigweed (Amaranthus retroflexus); test: Test G Pre-Emergence Protocol; details: Amaranthus retroflexus, pre-emergence, 312 h, evaluated after 13 days; for pest or weed control at 15.625 g/ha: 15.625 g ai/ha; for pest or weed control at 15.625 g/ha / pest or weed control at 250 g/ha: read-out: Pigweed, Redroot damage rating (100=total damage to plant; 0=no damage to plant); for pest or weed control at 62.5 g/ha: 62.5 g ai/ha, 100=total damage to plant, 0=no damage to plant, read-out: Pigweed, Redroot damage rating; for pest or weed control at 250 g/ha: 250 g ai/ha
In short: as §2

[10] = tested on: velvetleaf (Abutilon theophrasti); test: Test G Pre-Emergence Protocol; details: Abutilon theophrasti, pre-emergence, 312 h, evaluated after 13 days; for pest or weed control at 15.625 g/ha: 15.625 g ai/ha; for pest or weed control at 15.625 g/ha / pest or weed control at 250 g/ha: read-out: Velvetleaf damage rating (100=total damage to plant; 0=no damage to plant); for pest or weed control at 62.5 g/ha: 62.5 g ai/ha, 100=total damage to plant, 0=no damage to plant, read-out: Velvetleaf damage rating; for pest or weed control at 250 g/ha: 250 g ai/ha
In short: as §2

corn (Zea mays) [11] = test: Test G Pre-Emergence Protocol; details: Zea mays, pre-emergence, 312 h, evaluated after 13 days; for plant injury at 15.625 g/ha: 15.625 g ai/ha; for plant injury at 15.625 g/ha / plant injury at 250 g/ha: read-out: Corn damage rating (100=total damage to plant; 0=no damage to plant); for plant injury at 62.5 g/ha: 62.5 g ai/ha, 100=total damage to plant, 0=no damage to plant, read-out: Corn damage rating; for plant injury at 250 g/ha: 250 g ai/ha
In short: as §2

[12] = tested on: barnyardgrass (Echinochloa crus-galli); test: Test G Pre-Emergence Protocol; details: Echinochloa crus-galli, pre-emergence, 312 h, evaluated after 13 days; for pest or weed control at 15.625 g/ha: 15.625 g ai/ha; for pest or weed control at 15.625 g/ha / pest or weed control at 250 g/ha: read-out: Barnyardgrass damage rating (100=total damage to plant; 0=no damage to plant); for pest or weed control at 62.5 g/ha: 62.5 g ai/ha, 100=total damage to plant, 0=no damage to plant, read-out: Barnyardgrass damage rating; for pest or weed control at 250 g/ha: 250 g ai/ha
In short: as §2

Compound | pest or weed control at 15.625 g/ha [1] | pest or weed control at 62.5 g/ha [1] | pest or weed control at 250 g/ha [1] | pest or weed control at 15.625 g/ha [2] | pest or weed control at 62.5 g/ha [2] | pest or weed control at 250 g/ha [2] | pest or weed control at 15.625 g/ha [3] | pest or weed control at 62.5 g/ha [3] | pest or weed control at 250 g/ha [3] | pest or weed control at 15.625 g/ha [4] | pest or weed control at 62.5 g/ha [4] | pest or weed control at 250 g/ha [4] | plant injury at 15.625 g/ha (corn (Zea mays) [5]) | plant injury at 62.5 g/ha (corn (Zea mays) [5]) | plant injury at 250 g/ha (corn (Zea mays) [5]) | pest or weed control at 15.625 g/ha [6] | pest or weed control at 62.5 g/ha [6] | pest or weed control at 250 g/ha [6] | pest or weed control at 15.625 g/ha [7] | pest or weed control at 62.5 g/ha [7] | also measured
CN1C[C@H](c2ccc(C#N)c(C(F)(F)F)c2)[C@@H](C(=O)Nc2ccccc2S(C)(=O)=O)C1=O (racemic) [Compound 1796] | 0% | 0% | 0% | 0% | 10% | 10% | 0% | 10% | 20% | 0% | 0% | 0% | 0% | 0% | 0% | 0% | 0% | 0% | 0% | 0% | pest or weed control at 250 g/ha [7]: 0%; pest or weed control at 15.625 g/ha [8]: 0%; pest or weed control at 62.5 g/ha [8]: 0%; pest or weed control at 250 g/ha [8]: 0%; pest or weed control at 15.625 g/ha [9]: 0%; pest or weed control at 62.5 g/ha [9]: 0%; pest or weed control at 250 g/ha [9]: 20%; pest or weed control at 15.625 g/ha [10]: 0%; pest or weed control at 62.5 g/ha [10]: 0%; pest or weed control at 250 g/ha [10]: 10%; plant injury at 15.625 g/ha (corn (Zea mays) [11]): 0%; plant injury at 62.5 g/ha (corn (Zea mays) [11]): 0%; plant injury at 250 g/ha (corn (Zea mays) [11]): 0%; pest or weed control at 15.625 g/ha [12]: 0%; pest or weed control at 62.5 g/ha [12]: 0%; pest or weed control at 250 g/ha [12]: 0%
CN1C[C@H](c2cc(Cl)cc(C(F)(F)F)c2)[C@@H](C(=O)Nc2ccccc2S(C)(=O)=O)C1=O (racemic) [Compound 1797] | 50% | 80% | 80% | 0% | 40% | 80% | 30% | 70% | 80% | 60% | 80% | 90% | 10% | 60% | 70% | 30% | 70% | 80% | 60% | 80% | pest or weed control at 250 g/ha [7]: 90%; pest or weed control at 15.625 g/ha [8]: 0%; pest or weed control at 62.5 g/ha [8]: 10%; pest or weed control at 250 g/ha [8]: 20%; pest or weed control at 15.625 g/ha [9]: 0%; pest or weed control at 62.5 g/ha [9]: 0%; pest or weed control at 250 g/ha [9]: 60%; pest or weed control at 15.625 g/ha [10]: 0%; pest or weed control at 62.5 g/ha [10]: 20%; pest or weed control at 250 g/ha [10]: 70%; plant injury at 15.625 g/ha (corn (Zea mays) [11]): 10%; plant injury at 62.5 g/ha (corn (Zea mays) [11]): 50%; plant injury at 250 g/ha (corn (Zea mays) [11]): 70%; pest or weed control at 15.625 g/ha [12]: 40%; pest or weed control at 62.5 g/ha [12]: 60%; pest or weed control at 250 g/ha [12]: 80%
CN1C[C@H](c2cccc(C(F)F)c2)[C@@H](C(=O)Nc2ccccc2S(C)(=O)=O)C1=O (racemic) [Compound 1800] | 0% | 20% | 70% | 0% | 10% | 20% | 0% | 10% | 10% | 0% | 0% | 0% | 0% | 0% | 0% | 0% | 10% | 80% | 20% | 70% | pest or weed control at 250 g/ha [7]: 90%; pest or weed control at 15.625 g/ha [8]: 0%; pest or weed control at 62.5 g/ha [8]: 0%; pest or weed control at 250 g/ha [8]: 0%; pest or weed control at 15.625 g/ha [9]: 10%; pest or weed control at 62.5 g/ha [9]: 20%; pest or weed control at 250 g/ha [9]: 10%; pest or weed control at 15.625 g/ha [10]: 0%; pest or weed control at 62.5 g/ha [10]: 10%; pest or weed control at 250 g/ha [10]: 0%; plant injury at 15.625 g/ha (corn (Zea mays) [11]): 0%; plant injury at 62.5 g/ha (corn (Zea mays) [11]): 0%; plant injury at 250 g/ha (corn (Zea mays) [11]): 0%; pest or weed control at 15.625 g/ha [12]: 10%; pest or weed control at 62.5 g/ha [12]: 40%; pest or weed control at 250 g/ha [12]: 80%
